Earlier results in US20110059171A1 (LABORATORIOS SENOSIAIN S.A. DE C.V., priority 2008, published 2011).

What was measured:
[1] = in vivo

| water solubility | bound to proteins (proteins) | excreted without any change in urine [1] | Compound |
| --- | --- | --- | --- |
| highly water-soluble |  |  | O=C(c1ccccc1)c1ccc2n1CCC2C(=O)O (racemic) [Ketorolac tromethamine, (+−)-5(benzoyl)-2,3-dihydro-1H-pyrrolizine-1-carboxylic acid tris (hydroxymethyl)methylamine] |
|  | More than 99% | about 90% | O=C(c1ccccc1)c1ccc2n1CCC2C(=O)O (stereo not drawn) [Ketorolac] |
